In patent US12377042B2, “Botanical and bacterial extracts displaying retinol-like activity” (KENVUE BRANDS LLC, priority 2018, dated 2025):

Experiments:
[1] = tested on: human epidermal skin equivalents; test: Oleic acid induced hyperkeratinization in human epidermal skin equivalents; format: cell-based; conditions: for % Hyperkeratinization (normalized by 10% OA), Average / Stratum Corneum Thickness (% of Total Epidermis), Average: topical
Experimental: Human epidermal skin equivalents from MatTek Company (Ashland, MA, USA) were used. The skin equivalents were topically treated with 10% oleic acid (OA) either without or with the addition of 1 μM 3-(4-farnesyloxyphenyl)-propionic acid in a proprietary MatTek medium (pheno-red free, hydrocortisone free) for 48 hours. The epidermal skin equivalents were collected at the end of treatment and fixed in 10% neutral buffered formalin solution (Thermo Fisher Scientific, Hudson, NH, USA), dehydrated and embedded in paraffin. Tissue sections (5 μm thick) were cut and were stained with hematoxylin-eosin. Three pictures per section were taken for each skin equivalent. The thickness of the stratum cornea or epidermis was measured using ImagePro Plus (Media Cybernetics Inc., Rockville, MD, USA). The stratum corneum thickness was expressed as % of total epidermis (=thickness of stratum corneum divided by the sum of thicknesses of stratum corneum and epidermis). The % hyperkeratinizatin was normalized by the thickness of 10% OA-treated tissues. Statistical analysis was performed using two-tailed two-sample equal variance Student t test (Microsoft Office Excel 2007; Microsoft, Redmond, WA, USA).

[2] = biological target: T1, Retinoic acid receptor gamma (RARg) (Homo sapiens, UniProt P13631); test: RARg Transactivation Assay (GeneBLAzer RAR gamma-UAS-bla HEK 293T); format: cell-based; conditions: solution in DMSO at different concentrations
T1 construct: the UAS-driven beta-lactamase is the reporter
T1 sequence (P13631 185-419 limits assumed): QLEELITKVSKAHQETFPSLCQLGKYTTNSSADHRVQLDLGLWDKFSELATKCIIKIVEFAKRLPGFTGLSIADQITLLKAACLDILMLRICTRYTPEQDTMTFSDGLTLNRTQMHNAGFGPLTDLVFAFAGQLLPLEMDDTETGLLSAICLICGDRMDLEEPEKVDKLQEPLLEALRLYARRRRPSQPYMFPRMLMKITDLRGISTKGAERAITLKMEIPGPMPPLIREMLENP
Experimental: Retinoic acid receptor gamma (RARg) agonism was assessed using the Invitrogen GeneBLAzer RAR gamma-UAS-bla HEK 293T cell-based assay, in which activation of RARg results in transcription of beta lactamase. When a FRET probe is added to cells, FRET is observed. However, upon receptor activation and subsequent beta lactamase expression, the probe is cleaved and FRET is no longer observed.
Cells in culture are washed with PBS, trypsinized and resuspended in growth media, counted using ViCell cell counter; the appropriate amount of cells is then spun down and resuspended in assay buffer (at 0.5E6 cells/ml). 15 k cells in 30 ul assay buffer is plated per well in Greiner black walled, clear flat bottom plates using Combi dispenser. The last two columns are filled with assay buffer. […]
After 18-20 h of incubation, 8 ul FRET dye (Invitrogen K1096) is added using Tempest dispenser, after which plates are spun down at 800 rpm for 2 min without brakes and incubated in the dark at room temperature for 2 h. The bottom of the plates is cleaned using anti-static cleaning wipe before measuring fluorescence using BMG Pherastar plate reader (using FRET module, 10 reads, gain for both channels=1000, Ex 409, Em1 460, Em2 530). […]

[3] = 1 uM together with 10% oleic acid, 48 hours

EC50 [2] [nM]	SMILES	% Hyperkeratinization (normalized by 10% OA), Average [1, 3] [%]	Stratum Corneum Thickness (% of Total Epidermis), Average [1, 3] [%]	oleic-acid (OA) induced hyperkeratinization (in words) ([1]; 1 uM with 10% oleic acid, 48 hours, p<0.05)	Stratum Corneum Thickness (% of Total Epidermis), Average ([1]; 10% oleic acid alone, 48 hours) [%]	% Hyperkeratinization (normalized by 10% OA), Average ([1]; 10% oleic acid alone, 48 hours (reference)) [%]
594	CC(C)=CCCC(C)=CCCC(C)=CCOc1ccc(CCC(=O)O)cc1 [3-(4-farnesyloxyphenyl)-propionic acid]	76	38	significantly (p<0.05) reduced		
	CCCCCCCC/C=C\CCCCCCCC(=O)O [oleic acid, reference compound]				50	100
